Ends that are not written are not given here. Peptide text beside a SMILES is read from it.
What was measured:
[1] = system: tissue of medial septum nuclei; details: rat medial septum nuclei acetylcholinergic neuron; Reference 1; cited from earlier work
[2] = system: tissue of medial septum nuclei; experiment: neurotrophic activity: acceleration of acetylcholine synthesis in medial septum nuclei tissue (method of Ojika et al.); assay type: cell-based; details: qualitative statement, compared with rat-derived HCNP; no figures given
Excerpt: The neurotrophic activity (also called neurotrophic factor activity) refers to, for example, an action of regulating differentiation and maturation of neuronal cells, namely, an action of accelerating the acetylcholine synthesis in the tissue of medial septum nuclei which is rich in cholinergic neurons.
The human-derived neurotrophic peptide or its derivatives of the present invention can regulate differentiation and maturation of neuronal cells. That is, the neurotrophic peptide and derivatives thereof accelerate the acetylcholine synthesis in the tissue of medial septum nuclei. The biological activity can be determined by the method of Ojika, K., et al. (Reference 66).

Molecule	production of acetylcholine [1]	neurotrophic activity [2]
AADISQWAGPL [HCNP, Hippocampal cholinergic neurotrophic peptide of 11 amino acid residues isolated from hippocampal tissue of neonatal rat by Ojika et al]	enhances production of acetylcholine	
CC(C)C[C@H](NC(=O)[C@@H]1CCCN1C(=O)CNC(=O)[C@H](CO)NC(=O)[C@H](Cc1c[nH]c2ccccc12)NC(=O)[C@H](CCCCN)NC(=O)[C@H](CO)NC(=O)[C@H](CC(C)C)NC(=O)[C@H](CC(=O)O)NC(=O)[C@@H](NC(=O)[C@@H]1CCCN1)C(C)C)C(=O)O [hHCNP] (H-PVDLSKWSGPL-OH)		neurotrophic activity similar to rat-derived HCNP was noted
